Source: patent US10814010B2, “FOXC2 inhibitor and methods of use thereof” (The Board of Regents of The University of Texas System, priority 2018, dated 2020)

Columns and labels:
MDA-MB-231 cells = test: Transwell invasion assay, MDA-MB-231; format: cell-based; conditions: MDA-MB-231, 20 μM, 24 hours
Description: Reversal of EMT mediated by MC-1-F2 was anticipated to lead to the inhibition of metastatic capability of cancer cells. […] A wound healing assay was carried out to examine the migratory capabilities of cells in closing a “wound” or gap over a period of 24 hours. […] Inhibition of migratory capabilities of cells only measures one aspect of EMT progression. EMT is marked also by increased invasiveness of cancer cells. Therefore, the invasive property of MDA-MB-231 cells treated with MC-1-F2 was examined (FIGS. 6B&C).
Matrigel invasion chambers (Corning) were allowed to come to room temperature and allowed to rehydrate for 2 hours in a cell incubator. Cells were treated 24 hours prior to assay and starved in 2% FBS in DMEM for 2 hours prior to assay. A cell suspension containing 5×10^4 cells/mL was prepared. Chemoattractant (DMEM+10% FBS) was added to the bottom of the wells. Using forceps, the inserts were transferred inside the wells and 0.5 mL of cell suspension was immediately added. The chambers were incubated for 22 hours in a humidified tissue culture incubator. After the 22 hours, the non-invading cells were removed by scrubbing the surface of the membrane. […] The cells were stained with 0.5% crystal violet solution and several images of the wells were then taken and total number of cells counted for analysis.

PC3 cells [1] = test: Co-treatment MTT assay, PC3; conditions: constant ratio
PC3 cells [2] = test: Transwell invasion assay, PC3; format: cell-based; conditions: PC3, 24 hours, vs DMSO
Description: Following determination of both inhibition of EMT and CSC properties, the inhibition of the migratory and invasive capabilities of both cell lines following MC-1-F2 treatment was examined through the use of a transwell invasion assay.
Matrigel invasion chambers (Corning) were allowed to come to room temperature and allowed to rehydrate for 2 hours in a cell incubator. Cells were treated 24 hours prior to assay and starved in 2% FBS in DMEM for 2 hours prior to assay. A cell suspension containing 5×10^4 cells/mL was prepared. Chemoattractant (DMEM+10% FBS) was added to the bottom of the wells. Using forceps, the inserts were transferred inside the wells and 0.5 mL of cell suspension was immediately added. The chambers were incubated for 22 hours in a humidified tissue culture incubator. After the 22 hours, the non-invading cells were removed by scrubbing the surface of the membrane. The cells were fixated with 4% formaldehyde solution for 2 minutes at room temperature. Followed by permeabilization of the membrane with 100% MeOH for 20 minutes at room temperature. The cells were stained with 0.5% crystal violet solution and several images of the wells were then taken and total number of cells counted for analysis.

N=C(N)NCCCCNc1nc(Nc2ccc(Oc3ccccc3)cc2)nc(N2CCN(c3nc(N)nc(Nc4ccc(N5CCOCC5)cc4)n3)CC2)n1 [MC-1-F2]
invasive property (transwell invasion) (MDA-MB-231 cells): decrease in the invasive property
combination index with docetaxel (CompuSyn) (PC3 cells [1]): negative combination index
combination effect with docetaxel (PC3 cells [1]; 24 hours): synergistic effects
combination effect with enzalutamide (CompuSyn) (PC3 cells [1]; 24 hours): only additive effects
invasiveness (transwell invasion) (PC3 cells [2]): remarkable inhibition in invasiveness
